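48-hour exposure; five concentrations; linearly interpolated endpoints. GI50 is the concentration that inhibits growth by half. TGI denotes the concentration required for complete inhibition of growth.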
Columns and labels:
Test in all cases: DTP human tumour cell line panel, 48 h
786-0 renal = test system: 786-0 renal
A498 renal = test system: A498 renal
A549 NSCLC = test system: A549 NSCLC
ACHN renal = test system: ACHN renal
BT-549 breast = test system: BT-549 breast
CAKI-1 renal = test system: CAKI-1 renal
CCRF-CEM leukemia = test system: CCRF-CEM leukemia
COLO 205 colon = test system: COLO 205 colon
DU-145 prostate = test system: DU-145 prostate
EKVX NSCLC = test system: EKVX NSCLC
HCC-2998 colon = test system: HCC-2998 colon
HCT-116 colon = test system: HCT-116 colon
HCT-15 colon = test system: HCT-15 colon
HL-60(TB) leukemia = test system: HL-60(TB) leukemia
HOP-62 NSCLC = test system: HOP-62 NSCLC
HOP-92 NSCLC = test system: HOP-92 NSCLC
HS 578T breast = test system: HS 578T breast
HT29 colon = test system: HT29 colon
IGROV1 ovarian = test system: IGROV1 ovarian
K-562 leukemia = test system: K-562 leukemia
KM12 colon = test system: KM12 colon
LOX IMVI melanoma = test system: LOX IMVI melanoma
M14 melanoma = test system: M14 melanoma
MALME-3M melanoma = test system: MALME-3M melanoma
MCF7 breast = test system: MCF7 breast
MDA-MB-231 breast = test system: MDA-MB-231 breast
MDA-MB-435 = test system: MDA-MB-435
MDA-MB-468 breast = test system: MDA-MB-468 breast
MOLT-4 leukemia = test system: MOLT-4 leukemia
NCI-H226 lung = test system: NCI-H226 lung
NCI-H23 lung = test system: NCI-H23 lung
NCI-H460 lung = test system: NCI-H460 lung
NCI-H522 lung = test system: NCI-H522 lung
NCI/ADR-RES ovarian = test system: NCI/ADR-RES ovarian
OVCAR-3 ovarian = test system: OVCAR-3 ovarian
OVCAR-4 ovarian = test system: OVCAR-4 ovarian
OVCAR-5 ovarian = test system: OVCAR-5 ovarian
OVCAR-8 ovarian = test system: OVCAR-8 ovarian
PC-3 prostate = test system: PC-3 prostate
RPMI-8226 leukemia = test system: RPMI-8226 leukemia
RXF 393 renal = test system: RXF 393 renal
SF-268 CNS = test system: SF-268 CNS
SF-295 CNS = test system: SF-295 CNS
SF-539 CNS = test system: SF-539 CNS
SK-MEL-2 melanoma = test system: SK-MEL-2 melanoma
SK-MEL-28 melanoma = test system: SK-MEL-28 melanoma
SK-MEL-5 melanoma = test system: SK-MEL-5 melanoma
SK-OV-3 ovarian = test system: SK-OV-3 ovarian
SN12C renal = test system: SN12C renal
SNB-19 CNS = test system: SNB-19 CNS
SNB-75 CNS = test system: SNB-75 CNS
SR leukemia = test system: SR leukemia
SW-620 colon = test system: SW-620 colon
T-47D breast = test system: T-47D breast
TK-10 renal = test system: TK-10 renal
U251 CNS = test system: U251 CNS
UACC-257 melanoma = test system: UACC-257 melanoma
UACC-62 melanoma = test system: UACC-62 melanoma
UO-31 renal = test system: UO-31 renal

For `CC(C)(C)OC(=O)N1C/C(=C\c2ccc(F)cc2)C(=O)/C(=C/c2ccc(F)cc2)C1`, which GI50 (786-0 renal) is on record?
Its GI50 is 1.94 µM.

And the TGI (786-0 renal)?
Its TGI is 3.98 µM.

What about the GI50 (A498 renal) of the same compound?
Its GI50 is 17.1 µM.

What about the TGI (A498 renal) of the same compound?
The TGI was 34.6 µM.

And the GI50 (A549 NSCLC)?
The GI50 was 6.72 µM.

What about the TGI (A549 NSCLC) of the same compound?
The TGI was 29 µM.

What about the GI50 (ACHN renal) of the same compound?
The GI50 was 1.87 µM.

And the TGI (ACHN renal)?
The TGI was 3.68 µM.

What about the GI50 (BT-549 breast) of the same compound?
Its GI50 is 1.82 µM.

What about the TGI (BT-549 breast) of the same compound?
The TGI was 3.73 µM.

What about the GI50 (CAKI-1 renal) of the same compound?
Its GI50 is 2.07 µM.

And the TGI (CAKI-1 renal)?
The TGI was 5.5 µM.

What about the GI50 (CCRF-CEM leukemia) of the same compound?
Its GI50 is 1.81 µM.

What about the TGI (CCRF-CEM leukemia) of the same compound?
Its TGI is over 100 µM.

And the GI50 (COLO 205 colon)?
The GI50 was 3.49 µM.

What about the TGI (COLO 205 colon) of the same compound?
The TGI was 12.1 µM.

And the GI50 (DU-145 prostate)?
The GI50 was 3.5 µM.

And the TGI (DU-145 prostate)?
Its TGI is 13.7 µM.

What about the GI50 (EKVX NSCLC) of the same compound?
The GI50 was 2.56 µM.

And the TGI (EKVX NSCLC)?
Its TGI is 6.61 µM.

And the GI50 (HCC-2998 colon)?
Its GI50 is 1.84 µM.

What about the TGI (HCC-2998 colon) of the same compound?
Its TGI is 3.26 µM.

What about the GI50 (HCT-116 colon) of the same compound?
The GI50 was 0.355 µM.

What about the TGI (HCT-116 colon) of the same compound?
The TGI was 1.28 µM.

What about the GI50 (HCT-15 colon) of the same compound?
The GI50 was 1.5 µM.

What about the TGI (HCT-15 colon) of the same compound?
The TGI was 3.22 µM.

What about the GI50 (HL-60(TB) leukemia) of the same compound?
Its GI50 is 2.88 µM.

What about the TGI (HL-60(TB) leukemia) of the same compound?
Its TGI is over 100 µM.

What about the GI50 (HOP-62 NSCLC) of the same compound?
The GI50 was 13.1 µM.

And the TGI (HOP-62 NSCLC)?
Its TGI is 26.9 µM.

What about the GI50 (HOP-92 NSCLC) of the same compound?
Its GI50 is 2.51 µM.

And the TGI (HOP-92 NSCLC)?
Its TGI is 9.66 µM.

What about the GI50 (HS 578T breast) of the same compound?
Its GI50 is 2.26 µM.

And the TGI (HS 578T breast)?
Its TGI is 7.68 µM.

What about the GI50 (HT29 colon) of the same compound?
Its GI50 is 1.91 µM.

And the TGI (HT29 colon)?
Its TGI is 3.72 µM.

What about the GI50 (IGROV1 ovarian) of the same compound?
Its GI50 is 2.14 µM.

And the TGI (IGROV1 ovarian)?
The TGI was 4.82 µM.

What about the GI50 (K-562 leukemia) of the same compound?
The GI50 was 0.643 µM.

What about the TGI (K-562 leukemia) of the same compound?
The TGI was over 100 µM.

What about the GI50 (KM12 colon) of the same compound?
Its GI50 is 1.89 µM.

What about the TGI (KM12 colon) of the same compound?
Its TGI is 4.23 µM.

What about the GI50 (LOX IMVI melanoma) of the same compound?
The GI50 was 1.28 µM.

And the TGI (LOX IMVI melanoma)?
The TGI was 2.55 µM.

And the GI50 (M14 melanoma)?
Its GI50 is 2.02 µM.

What about the TGI (M14 melanoma) of the same compound?
The TGI was 4.5 µM.

What about the GI50 (MALME-3M melanoma) of the same compound?
The GI50 was 2.24 µM.

And the TGI (MALME-3M melanoma)?
Its TGI is 5.15 µM.

And the GI50 (MCF7 breast)?
Its GI50 is 0.991 µM.

And the TGI (MCF7 breast)?
Its TGI is 2.46 µM.

And the GI50 (MDA-MB-231 breast)?
Its GI50 is 2.16 µM.

And the TGI (MDA-MB-231 breast)?
Its TGI is 5.27 µM.

And the GI50 (MDA-MB-435)?
Its GI50 is 1.73 µM.

What about the TGI (MDA-MB-435) of the same compound?
The TGI was 3.32 µM.

What about the GI50 (MDA-MB-468 breast) of the same compound?
Its GI50 is 1.85 µM.

And the TGI (MDA-MB-468 breast)?
The TGI was 3.75 µM.

What about the GI50 (MOLT-4 leukemia) of the same compound?
The GI50 was 3.5 µM.

What about the TGI (MOLT-4 leukemia) of the same compound?
The TGI was over 100 µM.

And the GI50 (NCI-H226 lung)?
The GI50 was 3.64 µM.

What about the TGI (NCI-H226 lung) of the same compound?
The TGI was 14.8 µM.

What about the GI50 (NCI-H23 lung) of the same compound?
The GI50 was 2.17 µM.

What about the TGI (NCI-H23 lung) of the same compound?
The TGI was 5.3 µM.

And the GI50 (NCI-H460 lung)?
The GI50 was 3.22 µM.

What about the TGI (NCI-H460 lung) of the same compound?
The TGI was 10.7 µM.

And the GI50 (NCI-H522 lung)?
The GI50 was 1.63 µM.

What about the TGI (NCI-H522 lung) of the same compound?
Its TGI is 3.17 µM.

And the GI50 (NCI/ADR-RES ovarian)?
The GI50 was 1.89 µM.

And the TGI (NCI/ADR-RES ovarian)?
The TGI was 4.39 µM.

What about the GI50 (OVCAR-3 ovarian) of the same compound?
The GI50 was 1.99 µM.

What about the TGI (OVCAR-3 ovarian) of the same compound?
The TGI was 4.46 µM.

What about the GI50 (OVCAR-4 ovarian) of the same compound?
Its GI50 is 3.22 µM.

What about the TGI (OVCAR-4 ovarian) of the same compound?
Its TGI is 19.5 µM.

What about the GI50 (OVCAR-5 ovarian) of the same compound?
The GI50 was 2.18 µM.

What about the TGI (OVCAR-5 ovarian) of the same compound?
The TGI was 5.59 µM.

And the GI50 (OVCAR-8 ovarian)?
Its GI50 is 1.83 µM.

What about the TGI (OVCAR-8 ovarian) of the same compound?
The TGI was 3.78 µM.

And the GI50 (PC-3 prostate)?
The GI50 was 1.9 µM.

What about the TGI (PC-3 prostate) of the same compound?
Its TGI is 6.41 µM.

And the GI50 (RPMI-8226 leukemia)?
Its GI50 is 0.379 µM.

What about the TGI (RPMI-8226 leukemia) of the same compound?
Its TGI is 2.64 µM.

What about the GI50 (RXF 393 renal) of the same compound?
Its GI50 is 2.92 µM.

And the TGI (RXF 393 renal)?
Its TGI is 8.29 µM.

What about the GI50 (SF-268 CNS) of the same compound?
The GI50 was 3.02 µM.

What about the TGI (SF-268 CNS) of the same compound?
Its TGI is 11.7 µM.

And the GI50 (SF-295 CNS)?
Its GI50 is 1.97 µM.

And the TGI (SF-295 CNS)?
The TGI was 3.98 µM.

And the GI50 (SF-539 CNS)?
The GI50 was 1.94 µM.

And the TGI (SF-539 CNS)?
The TGI was 3.81 µM.

And the GI50 (SK-MEL-2 melanoma)?
The GI50 was 2.65 µM.

And the TGI (SK-MEL-2 melanoma)?
The TGI was 9.67 µM.

What about the GI50 (SK-MEL-28 melanoma) of the same compound?
Its GI50 is 2.17 µM.

And the TGI (SK-MEL-28 melanoma)?
Its TGI is 5.51 µM.

What about the GI50 (SK-MEL-5 melanoma) of the same compound?
Its GI50 is 1.71 µM.

What about the TGI (SK-MEL-5 melanoma) of the same compound?
Its TGI is 3.51 µM.

And the GI50 (SK-OV-3 ovarian)?
Its GI50 is 8.24 µM.

And the TGI (SK-OV-3 ovarian)?
Its TGI is 21.9 µM.

What about the GI50 (SN12C renal) of the same compound?
The GI50 was 1.82 µM.

What about the TGI (SN12C renal) of the same compound?
The TGI was 4.12 µM.

And the GI50 (SNB-19 CNS)?
Its GI50 is 2.65 µM.

What about the TGI (SNB-19 CNS) of the same compound?
The TGI was 8.72 µM.

What about the GI50 (SNB-75 CNS) of the same compound?
Its GI50 is 2.53 µM.

And the TGI (SNB-75 CNS)?
The TGI was 19.9 µM.

And the GI50 (SR leukemia)?
The GI50 was 0.335 µM.

What about the TGI (SR leukemia) of the same compound?
The TGI was over 100 µM.

What about the GI50 (SW-620 colon) of the same compound?
Its GI50 is 0.455 µM.

What about the TGI (SW-620 colon) of the same compound?
The TGI was 1.7 µM.

And the GI50 (T-47D breast)?
The GI50 was 3.18 µM.

What about the TGI (T-47D breast) of the same compound?
The TGI was 15.9 µM.

What about the GI50 (TK-10 renal) of the same compound?
The GI50 was 4.01 µM.

What about the TGI (TK-10 renal) of the same compound?
Its TGI is 16.4 µM.

And the GI50 (U251 CNS)?
Its GI50 is 1.44 µM.

And the TGI (U251 CNS)?
The TGI was 2.96 µM.

And the GI50 (UACC-257 melanoma)?
The GI50 was 2.06 µM.

What about the TGI (UACC-257 melanoma) of the same compound?
The TGI was 5.19 µM.

And the GI50 (UACC-62 melanoma)?
Its GI50 is 1.78 µM.

And the TGI (UACC-62 melanoma)?
Its TGI is 4.17 µM.

What about the GI50 (UO-31 renal) of the same compound?
Its GI50 is 1.77 µM.

What about the TGI (UO-31 renal) of the same compound?
Its TGI is 3.94 µM.

Reference: PubChem BioAssay (NCI)
